In patent US11166934B2 (Azcuris Co., Ltd., priority 2017, dated 2021):
Read-outs that look alike come from different tables or passages of the source.

Key:
binding of TSLP to TSLPR = binding of TSLP to TSLPR (Homo sapiens, UniProt Q969D9); assay: ELISA-based TSLP-TSLPR interaction assay (FLAG-TSLP, TSLPR-His, HRP); details: for inhibitory effects on the binding of TSLP to TSLP receptor (in words): treated alone
[1] = test system: TSLP-mediated phosphorylation of STAT5 in HMC-1 human mast cell line; assay: Cell-based efficacy evaluation using FACS: intracellular phosphorylation of STAT5 after TSLP treatment of HMC-1 cells; details: for Degrees of intracellular phosphorylation of STAT5 molecules (%): HMC-1 cells, TSLP 100 ng/mL, 30 min, control treated with TSLP alone = 100%
Protocol: The binding of TSLP to TSLP receptor activates various signaling pathways, mainly the JAK/STAT pathway. TSLP-mediated signaling is well known to specifically phosphorylate STAT5 among STAT molecules.
In this example, this fact was confirmed through the following experiment.
First, HMC-1, a human mast cell line, was cultured until an appropriate number of cells were maintained in a 96-well plate. […] Cells were fixed with Cytofix. Subsequently, cells were permeabilized with a permeabilization buffer and stained with anti-pSTAT5 antibody at 4° C. for 30 min. Cells were washed three times with the same buffer and analyzed by flow cytometry. […] The intracellular phosphorylation of STAT5 molecules in the control was 100%.

[2] = read-out: TSLP-TSLPR inhibitions (%)

Sequence of binding of TSLP to TSLPR (Q969D9 29-159): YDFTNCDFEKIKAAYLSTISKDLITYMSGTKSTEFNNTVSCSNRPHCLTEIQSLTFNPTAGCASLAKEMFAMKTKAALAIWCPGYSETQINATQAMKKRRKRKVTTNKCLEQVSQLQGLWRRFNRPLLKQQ

Structure (SMILES)	inhibition at 150 µM (binding of TSLP to TSLPR; [2]) [%]	inhibition at 300 µM (binding of TSLP to TSLPR; [2]) [%]	inhibitory effects on the binding of TSLP to TSLP receptor (in words) (binding of TSLP to TSLPR)	also measured
O=c1cc(-c2ccccc2)oc2cc(O)c(O)c(O)c12 [Formula 1, baicalein]				inhibition at 100 µM (binding of TSLP to TSLPR; read-out: TSLP-TSLPR inhibitions (%), 0.1 mM, Table 5): 3.2 ± 1.3%; inhibition at 300 µM (binding of TSLP to TSLPR; read-out: TSLP-TSLPR inhibitions (%), 0.3 mM, Table 2): 45.8 ± 0.7%; inhibition at 300 µM (binding of TSLP to TSLPR; read-out: TSLP-TSLPR inhibitions (%), 0.3 mM, Table 6): 16.5 ± 1.6%; Degrees of intracellular phosphorylation of STAT5 molecules (%) ([1]; 3 μM): 65.7%; Degrees of intracellular phosphorylation of STAT5 molecules (%) ([1]; 10 μM): 61.6%; effect on phosphorylation of STAT5 molecules (in words) ([1]; summary of Table 1): inhibit the phosphorylation of STAT5 molecules
Oc1ccc(-c2[o+]c3cc(O)cc(O)c3cc2O)cc1 [Formula 2, pelargonidin chloride]	6.3 ± 0.1	13.1 ± 5.8		
O=c1c(O)c(-c2ccc(O)cc2)oc2cc(O)cc(O)c12 [Formula 3, kaempferol]	0.6 ± 3.7			
O=C1/C(=C2\Nc3ccccc3C2=O)Nc2ccccc21 [Formula 4, indigo dye]	3.5 ± 2.7			
CN(C)CCn1c(=O)c2nc(-c3ccccc3)oc2c2ccccc21 [Formula 5, 5-(2-(dimethylamino)ethyl)-2-phenyloxazolo[4,5-c]quinolin-4(5H)-one]	10.2 ± 17	21.6 ± 3.4	insignificant inhibitory effects	inhibition at 100 µM (binding of TSLP to TSLPR; [2]): 6.5 ± 8.6%
CN(C)CCOc1nc2ccccc2c2oc(-c3ccccc3)nc12 [Formula 6, N,N-dimethyl-2-((2-phenyloxazolo[4,5-c]quinolin4-yl)oxy)ethanamine]	5.4 ± 0.7	19.3 ± 3	insignificant inhibitory effects	
